Data set [1] is described as follows: Tissue distribution (PK) in BALB/c nude mice bearing human colon cancer LoVo xenografts. The data set is classed as in vivo. As to conditions: mouse, LoVo xenograft mice, oral 40 mg/kg twice a day for three weeks, after last administration. The method, then: (1) In vivo PD study of the compound used on tumors of human colon cancer LoVo cells subcutaneously xenografted to BALB/c nude mice model
Experimental method: the experimental animals used were BALB/c nude mice (provided by Shanghai Xipuer-Beikai Experimental animal CO., Ltd), 6-8 weeks old, weighting 18-22 g.
Human colon cancer LoVo cells, monolayer-cultured in vitro, culturing condition was Ham's F-12 medium supplemented with 10% fetal bovine serum, 100 U/mL penicillin, 100 μg/mL streptomycin and 2 mM glutamine, 37° C., 5% CO2. Conventional digestion treatment passage was done with trypsin-EDTA twice a week. When the cell saturation reached 80%-90%, the cells were collected, counted, and inoculated. 0.1 mL (10×106) of LoVo cells were subcutaneously inoculated into the right back of each nude mouse, and group administration was started when the average tumor volume reached 213 mm^3. The administration mode was oral administration, 40 mg/kg twice a day for three consecutive weeks.
After the last administration of the experiment, a portion of plasma, tumor, intestine, brain, lung, liver and pancreas was collected from the number 1-2 animals after 0.5 h of administration, and quick-froze for PK detection; a portion of plasma, tumor, intestine, brain, lung, liver and pancreas was collected from the number 3-4 animals after 2 h of administration, and quick-froze for PK detection; a portion of plasma, tumor, intestine, brain, lung, liver and pancreas was collected from the number 5-6 animals after 8 h of administration, and quick-froze for PK detection. The tumor, intestine, brain, lung, liver and pancreas were weighted separately and added 9 times volumes of homogenate MeOH/15 mM PBS (1:2, v:v) for homogenization. 20 μL sample was added into 300 μL of the stop buffer including internal standard for protein precipitation, and shaked to mix well. The mixture was centrifuged at 13,000 rpm for 10 minutes at 20-25° C., and 3 μL of the supernatant was taken for LCMS analysis.
On the technique in general: In xenograft studies the graft and the host belong to different species.

Data set [2] in a line: Pharmacokinetic evaluation in BALB/c mice after intravenous and oral administration. As to conditions: mouse, plasma, BALB/c mice (female), single intravenous injection and oral administration; for clearance: read-out: Clearance rate; for AUC: read-out: Concentration integral AUC; for half-life: read-out: Half-life T1/2 (converted); for bioavailability: read-out: bioavailability F. In kind it is in vivo. The method, then:
Experimental objective: pharmacokinetics evaluation of the compound in BALB/c nude mice.
The rodent pharmacological characteristics of the compound after intravenous administration and oral administration were tested by a standard protocol, the candidate compound in the experiment was formulated into a clear solution, and the mice were administered by a single intravenous injection and oral administration. The intravenous and oral vehicles are a certain proportion of aqueous hydroxypropyl 3-cyclodextrin or physiological saline solution.

Data set [3] is described as follows: Thermodynamic solubility determination. The data set is classed as physicochemical. Conditions: for solubility at 24 h: buffer, 22 °C, aqueous buffer, thermodynamic from solid. The method, then: No less than 2 mg sample powder was weighted in a Whatman miniuniprep vial. If the experiment required to test the thermodynamic solubility of the sample in multiple buffer solutions, then separate vial was required for each test.
[…] After addition of the buffer, the Whatman filter cap of the miniuniprep is mounted and pressed until it was above the liquid level to allow the filter to contact with the buffer solution during shaking. The solubility sample was vortexed for 2 minutes. And the solution phenomenon was recorded. Then the vial was shaked at room temperature (about 22 to 25° C.) for 24 hours at a speed of 550 rpm. And the Whatman Miniunipreps filter cap was pressed to bottom to obtain the filtrate of the solubility solution of the sample. All sample vials should conduct filtration for the insoluble matter before and after and osmotic phenomenon. The […] was diluted 50 times to obtain a sample dilution.
Three UV standard solutions were injected from low to high concentrations into HPLC, and then dilution and supernatant of the test compounds were injected. The sample was injected and tested twice. Integration was conducted to the UV peaks. The standard curve was established and the thermodynamic solubility of the sample was calculated.

Another data set addresses Wee1 (Homo sapiens (Human), UniProt P30291). Nature of the data set: In vitro enzymatic inhibitory activity (33P-ATP filter-binding kinase assay, MBP substrate). As to conditions: Wee-1 150 nM, MBP 20 μM. In kind it is biochemical. The method in brief:
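Wee1 at 150 nM with 20 μM MBP substrate in pH 7.5 HEPES buffer (10 mM MgCl2, 2 mM DTT, 1% DMSO) was preincubated 20 min at RT with compounds in a 10-point 3-fold dilution series. The reaction was started with ^33P-ATP and run 2 h at RT. Kinase activity was measured by filter binding.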

[4] abbreviates: pH 6.5, shaken 24 hours at room temperature, read-out: Solubility (μM) pH 6.5.
Setting [5] is: pH 7.4, shaken 24 hours at room temperature, read-out: Solubility (μM) pH 7.4.

In brackets after ≈: the same amount, converted by molar mass. Where two headings read alike, the source gives them in different places.

Sequence of Wee1 (P30291 whole entry): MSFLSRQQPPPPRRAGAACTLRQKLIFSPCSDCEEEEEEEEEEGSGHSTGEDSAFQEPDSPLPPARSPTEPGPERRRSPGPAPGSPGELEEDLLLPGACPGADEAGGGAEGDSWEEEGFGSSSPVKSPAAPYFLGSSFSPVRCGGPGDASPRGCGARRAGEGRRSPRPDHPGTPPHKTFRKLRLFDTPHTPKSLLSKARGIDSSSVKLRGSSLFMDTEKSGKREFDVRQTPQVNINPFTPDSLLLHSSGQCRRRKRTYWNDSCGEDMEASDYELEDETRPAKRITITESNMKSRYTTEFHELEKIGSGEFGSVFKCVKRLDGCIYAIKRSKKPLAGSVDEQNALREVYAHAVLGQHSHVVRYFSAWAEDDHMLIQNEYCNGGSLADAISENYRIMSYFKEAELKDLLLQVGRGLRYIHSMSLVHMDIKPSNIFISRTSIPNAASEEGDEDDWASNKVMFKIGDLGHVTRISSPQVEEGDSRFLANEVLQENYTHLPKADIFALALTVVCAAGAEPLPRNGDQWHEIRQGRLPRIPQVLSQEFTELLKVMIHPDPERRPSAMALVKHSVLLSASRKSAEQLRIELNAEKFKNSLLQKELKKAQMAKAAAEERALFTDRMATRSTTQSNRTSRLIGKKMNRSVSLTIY

The term AUC(0-t) denotes exposure summed from dosing to a finite time, without extrapolation to infinity. Lower therefore signals low exposure. In general, Cmax refers to the peak of the concentration-time curve. For orientation: Tmax means the time from dosing to the highest level. As usually defined, the bioavailability is the share of a dose that reaches the circulation, judged against a reference dose that is usually intravenous. What is called solubility is the concentration that dissolves in the medium under given conditions. For the molecule `C=CCn1c(=O)c2cnc(Nc3ccc(N4CCN(C)CC4)cc3)nc2n1-c1cccc(C(C)(C)O)n1` [AZD1775, reference compound], the AUC(0-t) in data set [1] (Colon) turned out to be 225 µM·h; in data set [1] (liver) it was 117 µM·h; in data set [1] (lung), 36.5 µM·h; in data set [1] (pancreas), 55.5 µM·h; in data set [1] (plasma), 6.97 µM·h; in data set [1] (tumer (tumor)), 15.3 µM·h. Moreover, the Cmax in data set [1] (Colon) stood at 238 µM; in data set [1] (liver), 38.1 µM; in data set [1] (lung), 17.2 µM; in data set [1] (pancreas), 35.6 µM; in data set [1] (plasma) it was 3.07 µM; in data set [1] (tumer (tumor)), 3.85 µM. Further, the Tmax in data set [1] (Colon) is 0.5 h; in data set [1] (liver), 0.5 h; in data set [1] (lung), 0.5 h; in data set [1] (pancreas), 0.5 h; in data set [1] (plasma), 0.5 h; in data set [1] (tumer (tumor)) it was 2 h. The clearance in data set [2] came to 85.7 mL/min/kg. Further, the AUC in data set [2] was 1.2 µM·h. In addition, the half-life in data set [2] is 0.25 h. Besides, in data set [2], the bioavailability amounted to 31%. Moreover, the solubility at 24 h in data set [3] (setting [4]) was found to be 434 µM (≈ 217 µg/mL); in data set [3] (setting [5]) it was 68.8 µM (≈ 34.4 µg/mL).

As a reminder, the IC50 is the concentration that inhibits the measured activity by half. Read a high IC50 as weaker potency. Regarding `C=CCn1c(=O)c2cnc(Nc3ccc(N4CCC5(CCN(C(C)=O)CC5)CC4)cc3)nc2n1-c1cccc(C(C)(C)O)n1` [Embodiment 30, 6-((4-(9-acetyl-3,9-diazaspiro[5.5]undecan-3-yl)phenyl)amino)-2-allyl-1-(6-(2-hydroxypropan-2-yl)pyridin-2-yl)-1H-pyrazolo[3,4-d]pyrimidin-3(2H)-one], the AUC(0-t) amounted to 2.12 µM·h in data set [1] (Brain); 402 µM·h in data set [1] (Colon); 257 µM·h in data set [1] (liver); 74.7 µM·h in data set [1] (lung); 253 µM·h in data set [1] (pancreas); 14.2 µM·h in data set [1] (plasma). Also, the AUC(0-t) in data set [1] (tumer (tumor)) was found to be 37.3 µM·h. Further, the Cmax in data set [1] (Brain) came to 0.959 µM; in data set [1] (Colon), 135 µM; in data set [1] (liver), 67.7 µM; in data set [1] (lung), 14.6 µM; in data set [1] (pancreas) it was 49.3 µM; in data set [1] (plasma), 4.27 µM. In data set [1] (tumer (tumor)), the peak concentration (Cmax) was determined as 5.42 µM. Also, the Tmax in data set [1] (Brain) is 0.5 h; in data set [1] (Colon), 0.5 h; in data set [1] (liver) it was 2 h; in data set [1] (lung), 2 h; in data set [1] (pancreas) it was 2 h; in data set [1] (plasma), 2 h. In data set [1] (tumer (tumor)), the time to peak (Tmax) worked out at 8 h. At Wee1, this molecule gave an IC50 of 58.8 nM.

For the molecule `C=CCn1c(=O)c2cnc(Nc3ccc(N4CCC5(CCN(C)CC5)CC4)cc3)nc2n1-c1cccc(C2(F)COC2)n1` [Embodiment 43, 2-allyl-1-(6-(3-fluorooxetan-3-yl)pyridin-2-yl)-6-((4-(9-methyl-3,9-diazaspiro[5.5]undecan-3-yl)phenyl)amino)-1H-pyrazolo[3,4-d]pyrimidin-3(2H)-one], in data set [2], the clearance was determined as 23 mL/min/kg, the AUC was 5.59 µM·h, the half-life was 1.81 h and the bioavailability is 45.1%. Also, the half-inhibitory concentration (IC50) at Wee1 was found to be 12.1 nM.

For the molecule `C=CCn1c(=O)c2cnc(Nc3ccc(N4CCC5(CCN(C)CC5)CC4)cc3)nc2n1-c1cccc(C(C)(C)O)n1` [Embodiment 29, 2-allyl-1-(6-(2-hydroxypropan-2-yl)pyridin-2-yl)-6-((4-(9-methyl-3,9-diazaspiro[5.5]undecan-3-yl)phenyl)amino)-1H-pyrazolo[3,4-d]pyrimidin-3(2H)-one], in data set [2], the clearance is 51 mL/min/kg, the AUC was 2.15 µM·h, the half-life was 1.49 h and the bioavailability is 32.4%. Besides, the solubility at 24 h in data set [3] (setting [4]) was 1470 µM (≈ 835 µg/mL). In addition, the solubility at 24 h in data set [3] (setting [5]) worked out at 1050 µM (≈ 595 µg/mL). Also, in data set [3] (in words, compared to AZD1775, pH=6.5 and pH=7.4), the solubility in water entry is listed as “excellent solubility in water”. At Wee1, the IC50 was 13.4 nM.

Consider `C=CCn1c(=O)c2cnc(Nc3ccc(N4CCC5(CCN(C)CC5)CC4)cc3)nc2n1-c1cccc(C(=O)N(C)C)n1` [Embodiment 15, 6-(2-allyl-6-((4-(9-methyl-3,9-diazaspiro[5.5]undecan-3-yl)phenyl)amino)-3-oxo-2,3-dihydro-1H-pyrazolo[3,4-d]pyrimidin-1-yl)-N,N-dimethylpicolinamide], for which, in data set [2], the clearance worked out at 57.1 mL/min/kg, the AUC is 1.73 µM·h, the half-life is 1.7 h and the bioavailability came out at 35.3%. This molecule also came in with a 50% inhibitory concentration (IC50) on Wee1 of 31.5 nM.
